Laboratory results taken from patent US20260184708A1, “PYRIDAZINONES AND METHODS OF USE THEREOF” (GFB (ABC), LLC, priority 2017, published 2026).
Like-named read-outs stand apart in the source and are kept apart here.

Target: T1, TRPC5 (Homo sapiens, UniProt Q9UL62)
T1 construct: expressed in transfected cells; host or cells: HEK 293
T1 sequence (Q9UL62 1-973): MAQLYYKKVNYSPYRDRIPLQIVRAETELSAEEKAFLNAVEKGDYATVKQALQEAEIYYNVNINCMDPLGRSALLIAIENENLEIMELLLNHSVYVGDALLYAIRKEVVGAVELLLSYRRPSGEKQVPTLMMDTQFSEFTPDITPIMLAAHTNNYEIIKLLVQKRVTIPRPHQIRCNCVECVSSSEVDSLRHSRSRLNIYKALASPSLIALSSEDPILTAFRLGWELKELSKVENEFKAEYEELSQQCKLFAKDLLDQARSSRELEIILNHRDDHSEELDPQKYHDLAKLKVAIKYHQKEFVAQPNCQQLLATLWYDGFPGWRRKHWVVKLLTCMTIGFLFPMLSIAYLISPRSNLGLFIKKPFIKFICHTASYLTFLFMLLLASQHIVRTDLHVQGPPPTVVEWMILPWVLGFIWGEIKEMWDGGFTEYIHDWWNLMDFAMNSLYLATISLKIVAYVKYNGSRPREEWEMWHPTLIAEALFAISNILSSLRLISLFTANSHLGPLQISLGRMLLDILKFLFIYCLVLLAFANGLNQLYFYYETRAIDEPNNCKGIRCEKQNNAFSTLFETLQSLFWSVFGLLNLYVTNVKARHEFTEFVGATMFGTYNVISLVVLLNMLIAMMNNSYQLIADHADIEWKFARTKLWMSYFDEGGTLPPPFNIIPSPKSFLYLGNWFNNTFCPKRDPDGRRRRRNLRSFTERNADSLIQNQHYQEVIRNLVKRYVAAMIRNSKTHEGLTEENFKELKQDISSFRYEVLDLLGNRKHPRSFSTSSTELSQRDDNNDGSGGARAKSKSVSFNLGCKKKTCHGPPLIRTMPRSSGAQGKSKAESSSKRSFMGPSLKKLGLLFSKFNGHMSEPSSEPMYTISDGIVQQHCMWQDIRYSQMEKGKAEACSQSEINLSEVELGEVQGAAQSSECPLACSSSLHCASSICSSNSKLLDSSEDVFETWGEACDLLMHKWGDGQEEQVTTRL
Experiment: TRPC5 automated patch clamp assay (Qpatch), current block after rosiglitazone stimulation
Type: cell-based
Details: Table 4, HEK293 cells overexpressing TRPC5, rosiglitazone stimulation
Experimental: HEK 293 cells expressing human TRPC5 were harvested, re-suspended in serum free medium, and added to the automated platform and used within 2-3 hours. Internal and external physiological solutions were freshly prepared prior to the assay. The external solution contained: 145 mM NaCl, 4 mM KCl, 2 mM CaCl2), 1 mM MgCl2, 10 mM HEPES, 10 mM glucose, pH 7.4 with NaOH and 300 mOsm/L. The internal solution contained 120 mM L-aspartic acid, 120 mM CsOH·H2O, 20 mM CsCl, 2 mM MgCl2, 8.8 mM CaCl2), 10 mM EGTA, 10 mM HEPES, 10 mM Glucose, 0.1 mM GTP and 2 mM Na2ATP; pH 7.2 with CsOH and 290 mOsm/L. The free internal Ca2+ concentration was buffered to 1 μM.
The automated electrophysiological platform QPatch 16 from Sophion (Denmark) was used to carry out the compounds profiling. The series resistance and quality of seals were continuously monitored during the experiments. Data was analyzed using Sophion QPatch assay software 5.6 (Odense). IC50 values were calculated using a least squares regression algorithm (Hill equation).
To monitor the ion currents, a voltage ramp from −100 mV to +100 mV, over 300 ms, was applied every 10 seconds, from a holding potential of −60 mV.
After recording for a minimum of 60 seconds control period, Rosiglitazone (30 uM), was applied to activate the channel.

[1] = 80 mV, read-out: TRPC5_QP_ XC50_80
[2] = 100 mV, read-out: TRPC5_QP_ XC50_100

| Compound | IC50 [1] [µM] | IC50 [2] [µM] |
| --- | --- | --- |
| Cc1ccccc1CN1CCN(c2c(Cl)cn[nH]c2=O)CC1 | 5 to 10 | 5 to 10 |
| O=c1[nH]ncc(Cl)c1N1CCN(Cc2ccccc2C(F)(F)F)CC1 | 5 to 10 | 5 to 10 |
| CCN(CC)C(=O)CN1CCN(c2cn[nH]c(=O)c2Cl)CC1=O | 10 to 500 | 10 to 500 |
| COCCOc1c(N2CCN(Cc3ccccc3C)C(=O)C2)cn[nH]c1=O | 10 to 500 | 10 to 500 |
| CCN(CC)C(=O)CN1CCN(c2cn[nH]c(=O)c2Cl)CC1 | 10 to 500 | 10 to 500 |
| Cc1ccccc1CN1CCN(c2cn[nH]c(=O)c2C2CCOCC2)CC1=O | 10 to 500 | 10 to 500 |
| CCN(CC)C(=O)CN1CCN(c2cn[nH]c(=O)c2Cl)[C@H](C)C1 | 10 to 500 | 10 to 500 |
| C[C@@H]1CN(Cc2cccc3ccccc23)CCN1c1cn[nH]c(=O)c1Cl | 5 to 10 | 5 to 10 |
| C[C@@H]1CN(CC(=O)N(C)C)CCN1c1cn[nH]c(=O)c1Cl | 10 to 500 | 10 to 500 |
| Cc1cc(F)ccc1CN1CCN(c2cc(=O)[nH][nH]c2=O)CC1 | 10 to 500 | 10 to 500 |
| Cc1ccccc1CN1CCN(c2cn[nH]c(=O)c2Oc2ccccc2)CC1=O | 10 to 500 | 10 to 500 |
| Cc1cc(F)ccc1CN1CCN(c2cc(C)c(=O)[nH]n2)CC1 | 5 to 10 | 5 to 10 |
| Cc1cc(F)ccc1CN1CCN(c2n[nH]c(=O)cc2C)CC1 | 10 to 500 | 10 to 500 |
| C[C@@H](c1ccccc1)N1CCN(c2cn[nH]c(=O)c2Cl)CC1 | 5 to 10 | 1 to 5 |
| Cc1cc(C(F)(F)F)ccc1CN1CCN(c2cn[nH]c(=O)c2Cl)CC1 | 10 to 500 | 10 to 500 |
| O=C1CN(c2cn[nH]c(=O)c2Cl)CCN1Cc1ccc(-c2ccccc2)cc1 | 10 to 500 | 10 to 500 |
| Cc1cc(F)ccc1CN1CCN(c2cn[nH]c(=O)c2Cl)CC1=O | 1 to 5 | 1 to 5 |
| O=C1CN(c2cn[nH]c(=O)c2Cl)CCN1Cc1ccc(Cl)cn1 | 10 to 500 | 10 to 500 |
| CCc1c(N2CCN(Cc3ccccc3C)C(=O)C2)cn[nH]c1=O | 5 to 10 | 5 to 10 |
| O=c1[nH]ncc(N2CCN(C3(c4ccccc4)CC3)CC2)c1Cl | 5 to 10 | 5 to 10 |
| O=C1CN(c2cnnc(Br)c2Cl)CCN1Cc1ccc(F)cc1C(F)(F)F | 10 to 500 | 10 to 500 |
| O=C1CN(c2c(Cl)c(Br)n[nH]c2=O)CCN1Cc1ccccc1OC(F)(F)F | 10 to 500 | 10 to 500 |
| Cc1cc(F)ccc1CN1CCN(c2c(Cl)c(Br)n[nH]c2=O)CC1=O | 10 to 500 | 10 to 500 |
| Cc1cc(F)ccc1CN1CCN(c2c(Cl)c(C)n[nH]c2=O)CC1=O | 10 to 500 | 10 to 500 |

Further lines, results first:

| IC50 [1] [µM] | IC50 [2] [µM] | Compound |
| --- | --- | --- |
| 1 to 5 | 1 to 5 | O=c1[nH]ncc(N2CCN(Cc3cccc4ccccc34)CC2)c1Cl |
| 1 to 5 | 1 to 5 | Cc1ccccc1CN1CCN(c2cn[nH]c(=O)c2Cl)C(C)C1 (stereo not shown) |
| 1 to 5 | 1 to 5 | Cc1cc(F)ccc1CN1CCN(c2cn[nH]c(=O)c2Cl)C(C)C1 (stereo not shown) |
| 1 to 5 | 1 to 5 | C[C@H](c1ccccc1)N1CCN(c2cn[nH]c(=O)c2Cl)CC1 |
| 1 to 5 | 1 to 5 | Cc1ccccc1CN1CCN(c2cn[nH]c(=O)c2C(C)C)CC1=O |
| 1 to 5 | 1 to 5 | C=Cc1c(N2CCN(Cc3ccccc3C)C(=O)C2)cn[nH]c1=O |
| 1 to 5 | 1 to 5 | Cc1ccccc1[C@@H](C)N1CCN(c2cn[nH]c(=O)c2Cl)CC1 |
| 1e-05 to 1 | 1e-05 to 1 | O=C1CN(c2cn[nH]c(=O)c2Cl)CCN1Cc1ccc(C(F)(F)F)cc1 |
| 1 to 5 | 1 to 5 | Cn1ncc2c(CN3CCN(c4cn[nH]c(=O)c4Cl)CC3=O)cccc21 |
| 1 to 5 | 1 to 5 | O=C1CN(c2cn[nH]c(=O)c2Cl)CCN1Cc1ccc(F)cc1OC(F)(F)F |
| 1 to 5 | 5 to 10 | O=C1CN(c2c(Cl)c(Br)n[nH]c2=O)CCN1Cc1ccccc1C(F)(F)F |
